Test results as given in article PMC4532424, “The Novel Cyclophilin Inhibitor CPI-431-32 Concurrently Blocks HCV and HIV-1 Infections via a Similar Mechanism of Action” (PLoS ONE, 2015).
Like-named read-outs stand apart in the source and are kept apart here.

Tests used:
HIV-1 JR-CSF [1] = assay: HIV-1 mono-infection of CD4+ T-lymphocytes, p24 ELISA; assay type: cell-based; conditions: Fig 1A
Source text: Hemoglobin determinations at every donation protect the donor from phlebotomy-induced anemia. The donor pool also provides investigators with a mix of gender and minority subjects, and recruitment is ongoing for underrepresented minorities. At the present time, the NBDS has 320 active normal blood donors enrolled. Use of the Normal Blood Donor Service is considered “human subjects” research and each investigator who wants to use the service must submit a protocol to the IRB for review and approval. Dr. Gallay has current IRB approval for the human blood obtained for research described in this manuscript. Protocol No: IRB-15-6552. Full name of the IRB is "Scripps IRB". […] Consent from blood donors was obtained verbally. The authors have no access to identifying donor information for these samples.

HCV JFH-1 [2] = assay: HCV mono-infection of Huh7.5.1 cells, core ELISA; assay type: cell-based; conditions: Fig 1B
HIV-1 JR-CSF [3] = assay: HIV-1/HCV co-culture co-infection, HIV-1 p24 ELISA; assay type: cell-based
Procedure: (§1) CD4+ T-lymphocytes and Huh7.5.1 cells uninfected or infected for 3 h as described above were mixed in a single flask and HIV-1 and HCV replication monitored over a period of 3 weeks as described above.
(§2) HIV-1 target cells—CD4+ T-lymphocytes—and HCV target cells—hepatoma cells—were placed in a single chamber (flask), exposed to both HIV-1 and HCV, and viral replication monitored over time by p24 capsid and core ELISAs, respectively.
(§3) CD4+ T-lymphocytes (A) and Huh7.5.1 cells (B) (0.5 x 10^6 cells) (triplicates) were exposed to HIV-1 JR-CSF and HCV JFH-1. Drugs (2 μM) were added 3 h pre-viral exposure (top panels) or 3 days post-viral exposure (bottom panels). Viral replications were monitored by HIV-1 p24 and HCV core ELISAs. C. CD4+ T-lymphocytes (0.5 x 10^6 cells) (triplicates) were exposed to HIV-1 JR-CSF. Drugs were initially added 3 days post-viral exposure (2 μM) and then daily (0.5 μM). Viral replications were monitored by HIV-1 p24 and HCV core ELISAs. […] D. Model for the HIV-1/HCV co-culture system.

HCV JFH-1 [4] = assay: HIV-1/HCV co-culture co-infection, HCV core ELISA; assay type: cell-based
Procedure: as §1, §2, §3

human T cells = conditions: cited from earlier work
[5] = drug treatments begun 3 h before virus addition
[6] = single dose added 3 days post-infection

SMILES | Effect on HIV-1 replication (in words) (HIV-1 JR-CSF [1]) | Effect on HCV replication (in words) (HCV JFH-1 [2]) | Effect on HIV-1 replication (in words) (HIV-1 JR-CSF [3]; [5]) | Effect on HCV replication (in words) (HCV JFH-1 [4]; [5]) | Effect on HCV replication (in words) (HCV JFH-1 [4]; [6]) | Cellular toxicity (in words) (human T cells; general statement on other CypI, no reference given) | Effect on HIV-1 replication (in words) (HIV-1 JR-CSF [3]; [6]) | Cellular toxicity (in words) (human T cells)
COC(=O)N[C@H](C(=O)N1CCC[C@H]1c1nc(-c2ccc(-c3ccc(-c4c[nH]c([C@@H]5CCCN5C(=O)[C@@H](NC(=O)OC)C(C)C)n4)cc3)cc2)c[nH]1)C(C)C [Daclatasvir, daclatasvir] | had no effect | fully blocked HCV replication | did not | completely prevented | completely eradicated | – | – | –
C/C=C/C[C@@H](C)[C@@H](O)[C@H]1C(=O)N[C@@H](CC)C(=O)N(C)CC(=O)N(C)[C@@H]([C@@H](C)CC)C(=O)N[C@@H](C(C)C)C(=O)N(C)[C@@H](CC(C)C)C(=O)N[C@@H](C)C(=O)N[C@H](C)C(=O)N(C)[C@@H](CC(C)C)C(=O)N(C)[C@@H](CC(C)C)C(=O)N(C)[C@@H](C(C)C)C(=O)N1C [NIM811] | – | – | – | – | – | lack of cellular toxicity | – | –
Cc1c(O)cccc1C(=O)N[C@@H](CSc1ccccc1)[C@H](O)CN1C[C@H]2CCCC[C@H]2C[C@H]1C(=O)NC(C)(C)C [Nelfinavir, nelfinavir] | totally blocked replication | had no effect | totally prevented HIV-1 replication | did not | – | – | completely eradicated | –
C/C=C/C[C@@H](C)[C@@H](O)[C@H]1C(=O)N[C@@H](CC)C(=O)N(C)[C@H](SCCN(C)C)C(=O)N(C)[C@@H](CC(C)(C)O)C(=O)N[C@@H](C(C)C)C(=O)N(C)[C@@H](CC(C)C)C(=O)N[C@@H](C)C(=O)N[C@H](C)C(=O)N(C)[C@@H](CC(C)C)C(=O)N(C)[C@@H](CC(C)C)C(=O)N(C)[C@@H](C(C)C)C(=O)N1C [SCY-635] | – | – | – | – | – | – | – | lack of cellular toxicity
